Assay results: patent US20240116933A1, “INDAZOLE AND PYRAZOLOPYRIDINE COMPOUNDS AS INHIBITORS OF NLRP3 INFLAMMASOME” (BioAge Labs, Inc., priority 2022, published 2024)
pIC50: −log10 of the molar value.

target: T1, NLRP3 inflammasome (Homo sapiens, UniProt Q96P20); test: THP-1 Cell-Based NLRP3 Activation Assay; details: THP-1 cells, PMA, 100 ng/mL LPS 3 hrs, 30 min pre-incubation with test compound, 10 μM nigericin 1 hr
T1 construct: endogenous in cells; host or cells: THP-1 cells (PMA-differentiated, LPS-primed, nigericin-stimulated)
T1 sequence (Q96P20 whole entry): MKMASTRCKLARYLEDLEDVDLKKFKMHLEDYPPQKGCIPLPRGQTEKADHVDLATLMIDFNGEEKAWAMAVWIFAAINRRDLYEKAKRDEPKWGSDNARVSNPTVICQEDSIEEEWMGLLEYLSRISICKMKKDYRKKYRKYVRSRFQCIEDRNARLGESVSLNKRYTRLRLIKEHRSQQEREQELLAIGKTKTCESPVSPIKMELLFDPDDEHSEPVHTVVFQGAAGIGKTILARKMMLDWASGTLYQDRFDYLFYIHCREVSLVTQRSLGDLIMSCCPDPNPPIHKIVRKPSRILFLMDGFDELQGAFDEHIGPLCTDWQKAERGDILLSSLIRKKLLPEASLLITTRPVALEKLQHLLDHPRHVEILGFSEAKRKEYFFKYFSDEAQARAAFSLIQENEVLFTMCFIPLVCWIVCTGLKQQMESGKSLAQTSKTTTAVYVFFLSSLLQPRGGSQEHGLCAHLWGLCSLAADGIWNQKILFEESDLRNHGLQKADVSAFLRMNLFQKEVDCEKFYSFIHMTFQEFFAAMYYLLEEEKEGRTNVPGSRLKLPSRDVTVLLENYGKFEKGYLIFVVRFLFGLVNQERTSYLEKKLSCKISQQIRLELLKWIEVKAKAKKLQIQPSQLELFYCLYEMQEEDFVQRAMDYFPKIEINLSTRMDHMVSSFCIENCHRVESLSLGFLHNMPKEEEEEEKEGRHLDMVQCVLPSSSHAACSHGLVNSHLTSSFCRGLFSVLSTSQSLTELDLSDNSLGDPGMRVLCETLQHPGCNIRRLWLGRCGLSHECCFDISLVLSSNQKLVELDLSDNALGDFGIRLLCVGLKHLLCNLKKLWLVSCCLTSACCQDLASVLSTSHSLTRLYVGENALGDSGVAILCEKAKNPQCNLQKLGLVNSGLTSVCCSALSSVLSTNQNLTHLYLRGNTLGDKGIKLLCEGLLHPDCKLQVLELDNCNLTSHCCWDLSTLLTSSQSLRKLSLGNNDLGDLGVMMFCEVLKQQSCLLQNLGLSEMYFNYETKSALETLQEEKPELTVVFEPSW
Experimental: THP-1 cells are cultured in complete media (CM) until they reach logarithmic growth and achieve a viability >90%. CM is composed of RPMI-1640 (+Glutamax)/10% fetal bovine serum/55 μM β-mercaptoethanol/pen/strep. Cells are spun down and resuspended to 1,000,000 cells/mL in CM containing either 20 nM or 500 nM PMA. 150,000 cells […] are then added to each well of a 96-well TC plate and incubated for either 24 hr or 3 hr, respectively, in a standard cell culture incubator (37° C.; 5% CO2). After this incubation, the plate is tilted and media carefully removed. 200 μL of CM containing 100 ng/mL LPS is then added to the wells and the cells incubated an additional 3 hrs. The media is again removed and replaced with Opti-Mem medium containing pre-determined dilutions of test compounds in replicate wells. After a 30 min pre-incubation with test compound, 10 μM nigericin (final concentration) in Opti-Mem medium with the corresponding concentration of compound is added to the wells for an additional 1 hr. Positive control wells contain 10 μM nigericin in Opti-Mem in the absence of test compound, while negative control wells contain Opti-Mem only. […] Once supernatants are removed, the relative viability of adherent cells in the 96-well TC plate are determined using a CellTiter-Glo® luminescent cell viability assay (Promega).

Row | SMILES | pIC50
1 | CCOc1cc(C(=O)N(C)[C@H](C)c2ccc(CF)c3cn[nH]c23)ccc1-c1cccc(F)c1 (single isomer, unassigned) [Compound 169] | > 5.00
2 | CCOc1cc(C(=O)N(C)[C@H](C)c2c(O)ccc3cn[nH]c23)ccc1-c1cccc(F)c1 (single isomer, unassigned) [Compound 184] | > 5.00
3 | CCOc1cc(C(=O)N(C)Cc2cnc(CF)c3cn[nH]c23)ccc1C#CC1CC1 [Compound 001] | > 6.00
4 | CCOc1cc(C(=O)N(C)Cc2cc(OC(C)=O)cc3cn[nH]c23)ccc1-c1cccc(F)c1 [Compound 007] | > 6.00
5 | CCOc1cc(C(=O)N(C)Cc2cc(C(=O)OC)cc3cn[nH]c23)ccc1-c1cccc(F)c1 [Compound 008] | > 5.00
6 | CCOc1cc(C(=O)N(C)Cc2c(C3CC3)ncc3cn[nH]c23)ccc1-c1cccc(F)c1 [Compound 011] | > 6.00
7 | CCOc1cc(C(=O)N(C)Cc2cc(O)c(C)c3cn[nH]c23)ccc1-c1cccc(F)c1 [Compound 015] | > 6.00
8 | CCOc1cc(C(=O)N(C)Cc2cnc(C(C)O)c3cn[nH]c23)ccc1-c1cc(F)cc(F)c1 (stereo not drawn) [Compound 026] | > 6.00
9 | CCOc1cc(C(=O)N(C)Cc2cnc(C(C)O)c3cn[nH]c23)ccc1-c1cccc(C#N)c1 (stereo not drawn) [Compound 029] | > 6.00
10 | CCOc1cc(C(=O)N(C)Cc2cnc(C(C)O)c3cn[nH]c23)ccc1-c1cccc(Cl)c1 (stereo not drawn) [Compound 030] | > 6.00
11 | CCOc1cc(C(=O)N(C)Cc2cnc(C(C)O)c3cn[nH]c23)ccc1-c1ccccc1 (stereo not drawn) [Compound 031] | > 6.00
12 | CCN(Cc1cnc(C)c2cn[nH]c12)C(=O)c1cc(F)c(-c2cccc(Cl)c2)c(OC2CC2)c1 [Compound 032] | > 6.00
13 | Cc1ncc([C@@H](C)N(C)C(=O)c2cc(F)c(-c3cccc(F)c3)c(OC3CC3)c2)c2[nH]ncc12 [Compound 034] | > 5.00
14 | Cc1ncc([C@H](C)N(C)C(=O)c2cc(F)c(-c3cccc(F)c3)c(OC3CC3)c2)c2[nH]ncc12 [Compound 035] | > 6.00
15 | CCOc1cc(C(=O)N(C)Cc2c(O)ccc3cn[nH]c23)ccc1-c1cccc(F)c1 [Compound 036] | > 6.00
16 | CCOc1cc(C(=O)N(C)Cc2c(C)nc(CO)c3cn[nH]c23)ccc1-c1cccc(F)c1 [Compound 037] | > 6.00
17 | Cc1ncc(CN(C)C(=O)c2cc(F)c(-c3cccc(F)c3)c(OC3CC3)c2)c2[nH]ncc12 [Compound 038] | > 6.00
18 | CCOc1cc(C(=O)N(C)Cc2c(CO)ncc3cn[nH]c23)ccc1-c1cccc(F)c1 [Compound 039] | > 6.00
19 | Cc1nc(CO)c2cn[nH]c2c1CN(C)C(=O)c1cc(F)c(-c2cccc(Cl)c2)c(OC2CC2)c1 [Compound 040] | > 6.00
20 | Cc1nc(CO)c2cn[nH]c2c1CN(C)C(=O)c1ccc(-c2cccc(Cl)c2)c(OC2CC2)c1 [Compound 041] | > 6.00
21 | CCOc1cc(C(=O)N(C)[C@@H](C)c2cc(F)cc3cn[nH]c23)ccc1-c1cccc(F)c1 [Compound 042] | > 6.00
22 | CCOc1cc(C(=O)N(C)[C@H](C)c2cc(F)cc3cn[nH]c23)ccc1-c1cccc(F)c1 [Compound 043] | > 4.30

Row | SMILES | pIC50
23 | CCOc1cc(C(=O)N(C)[C@H](C)c2c(C)ncc3cn[nH]c23)ccc1-c1cccc(F)c1 [Compound 044] | > 4.30
24 | CCOc1cc(C(=O)N(C)[C@@H](C)c2c(C)ncc3cn[nH]c23)ccc1-c1cccc(F)c1 [Compound 045] | > 5.00
25 | CCOc1nc(C(=O)N(C)Cc2cnc(CF)c3cn[nH]c23)ccc1-c1cccc(C(F)(F)F)c1 [Compound 046] | > 6.00
26 | CN(Cc1cnc(CO)c2cn[nH]c12)C(=O)c1cc(F)c(-c2cccc(Cl)c2)c(OC2CC2)c1 [Compound 047] | > 6.00
27 | Cc1ncc(CN(C)C(=O)c2cc(F)c(-c3cccc(Cl)c3)c(OC3CC3)c2)c2[nH]ncc12 [Compound 048] | > 6.00
28 | CCOc1cc(C(=O)N(C)[C@@H](C)c2cnc(C)c3cn[nH]c23)ccc1-c1cccc(F)c1 [Compound 049] | > 4.30
29 | CCOc1cc(C(=O)N(C)[C@H](C)c2cnc(C)c3cn[nH]c23)ccc1-c1cccc(F)c1 [Compound 050] | > 6.00
30 | C[C@@H](c1cncc2cn[nH]c12)N(C)C(=O)c1ccc(-c2cccc(F)c2)c(OC2CC2)c1 [Compound 052] | > 6.00
31 | CCOc1cc(C(=O)N(C)Cc2c(C)nc(C)c3cn[nH]c23)ccc1-c1cccc(F)c1 [Compound 053] | > 6.00
32 | CCOc1cc(C(=O)N(C)C(C)c2cnc(CF)c3cn[nH]c23)ccc1-c1cccc(F)c1 (stereo not drawn) [Compound 055] | > 6.00
33 | CCOc1nc(C(=O)N(C)[C@@H](C)c2cncc3cn[nH]c23)ccc1-c1cccc(F)c1 [Compound 056] | > 6.00
34 | CCOc1nc(C(=O)N(C)[C@H](C)c2cncc3cn[nH]c23)ccc1-c1cccc(F)c1 [Compound 057] | > 4.30
35 | CCOc1cc(C(=O)N(C)[C@H](C)c2cccc3cn[nH]c23)ccc1-c1cccc(F)c1 [Compound 058] | > 4.30
36 | CCOc1cc(C(=O)N(C)[C@@H](C)c2cccc3cn[nH]c23)ccc1-c1cccc(F)c1 [Compound 059] | > 6.00
37 | Cc1ncc2cn[nH]c2c1CN(C)C(=O)c1cc(F)c(-c2cccc(F)c2)c(OC2CC2)c1 [Compound 062] | > 6.00
38 | Cc1ncc(CN(C)C(=O)c2cc(F)c(-c3ccccc3)c(OC3CC3)c2)c2[nH]ncc12 [Compound 064] | > 6.00
39 | Cc1ncc(CN(C)C(=O)c2cc(F)c(-c3cccc(C#N)c3)c(OC3CC3)c2)c2[nH]ncc12 [Compound 065] | > 6.00
40 | CCOc1cc(C(=O)N(C)Cc2ccc(CO)c3cn[nH]c23)ccc1-c1cccc(F)c1 [Compound 066] | > 6.00
41 | CCOc1cc(C(=O)N(CC)Cc2cnc(C(C)O)c3cn[nH]c23)ccc1-c1cccc(F)c1 (stereo not drawn) [Compound 067] | > 6.00
42 | Cc1ncc2cn[nH]c2c1CN(C)C(=O)c1cc(F)c(-c2cccc(Cl)c2)c(OC2CC2)c1 [Compound 068] | > 6.00
43 | CCOc1cc(C(=O)N(C)Cc2cc(CO)cc3cn[nH]c23)ccc1-c1cccc(F)c1 [Compound 069] | > 6.00
44 | CCOc1cc(C(=O)N(C)Cc2cnc(C(C)F)c3cn[nH]c23)ccc1-c1cccc(F)c1 (stereo not drawn) [Compound 070] | > 6.00

Row | SMILES | pIC50
45 | CN(Cc1cnc(CF)c2cn[nH]c12)C(=O)c1cc(F)c(-c2cccc(Cl)c2)c(OC2CC2)c1 [Compound 071] | > 6.00
46 | CCOc1cc(C(=O)N(C)Cc2cnc(C(C)O)c3cn[nH]c23)cc(F)c1-c1cc(C#N)cs1 (stereo not drawn) [Compound 072] | > 5.00
47 | CCOc1cc(C(=O)N(C)Cc2cnc(CO)c3cn[nH]c23)cc(F)c1-c1cc(C#N)cs1 [Compound 073] | > 6.00
48 | CCOc1nc(C(=O)N(C)[C@@H](C)c2ccc(CF)c3cn[nH]c23)ccc1-c1cccc(F)c1 [Compound 074] | > 4.30
49 | CCOc1nc(C(=O)N(C)[C@H](C)c2ccc(CF)c3cn[nH]c23)ccc1-c1cccc(F)c1 [Compound 075] | > 4.30
50 | CCOc1cc(C(=O)N(C)Cc2cnc(C(C)O)c3cn[nH]c23)cc(F)c1-c1cc(F)cc(C#N)c1 (stereo not drawn) [Compound 076] | > 6.00
51 | CCOc1cc(C(=O)N(C)Cc2c(COC)ncc3cn[nH]c23)ccc1-c1cccc(F)c1 [Compound 077] | > 6.00
52 | Cc1nc(CO)c2cn[nH]c2c1CN(C)C(=O)c1ccc(-c2cccc(C#N)c2)c(OC2CC2)c1 [Compound 078] | > 6.00
53 | CCOc1cc(C(=O)N(C)Cc2c(C)nc(C(C)O)c3cn[nH]c23)ccc1-c1cccc(F)c1 (stereo not drawn) [Compound 079] | > 6.00
54 | CC(O)c1ncc(CN(C)C(=O)c2ccc(-c3cccc(C#N)c3)c(OC3CC3)c2)c2[nH]ncc12 (stereo not drawn) [Compound 080] | > 4.30
55 | CCOc1cc(C(=O)N(C)Cc2cnc(C(C)O)c3cn[nH]c23)cc(F)c1-c1cc(F)cs1 (stereo not drawn) [Compound 081] | > 6.00
56 | CCN(Cc1cnc(CO)c2cn[nH]c12)C(=O)c1ccc(-c2cccc(C#N)c2)c(OC2CC2)c1 [Compound 082] | > 4.30
57 | CC(O)c1ncc(CN(C)C(=O)c2ccc(-c3cccs3)c(OC3CC3)c2)c2[nH]ncc12 (stereo not drawn) [Compound 083] | > 5.00
58 | CN(Cc1cnc(CO)c2cn[nH]c12)C(=O)c1ccc(-c2cccc(Cl)c2)c(OC2CCC2)c1 [Compound 084] | > 6.00
59 | CN(Cc1cnc(CO)c2cn[nH]c12)C(=O)c1ccc(-c2cccs2)c(OC2CC2)c1 [Compound 085] | > 5.00
60 | CCN(Cc1cnc(CO)c2cn[nH]c12)C(=O)c1cc(F)c(-c2cccc(C#N)c2)c(OC2CC2)c1 [Compound 087] | > 6.00
61 | CCOc1cc(C(=O)N(C)Cc2cnc(C(C)O)c3cn[nH]c23)cc(F)c1-c1ccsc1 (stereo not drawn) [Compound 088] | > 6.00
62 | CCOc1cc(C(=O)N(C)Cc2cnc(C(C)O)c3cn[nH]c23)cc(F)c1-c1cccc(C#N)c1 (stereo not drawn) [Compound 090] | > 5.00
63 | CC(O)c1ncc(CN(C)C(=O)c2cc(F)c(-c3cccc(C#N)c3)c(OC3CC3)c2)c2[nH]ncc12 (stereo not drawn) [Compound 091] | > 6.00
64 | CCN(Cc1cnc(CO)c2cn[nH]c12)C(=O)c1cc(F)c(-c2cccc(Cl)c2)c(OC2CC2)c1 [Compound 092] | > 6.00
65 | CCOc1cc(C(=O)N(C)Cc2cnc(CO)c3cn[nH]c23)cc(F)c1-c1cc(F)cs1 [Compound 093] | > 6.00
66 | CCOc1cc(C(=O)N(C)Cc2cnc(C(C)O)c3cn[nH]c23)cc(F)c1-c1cc(F)cc(Cl)c1 (stereo not drawn) [Compound 096] | > 6.00
